According to US20040072839A1, “1-Phenylalkylpiperazines” (priority 2002, published 2004):

The compounds below were run against T1, human 5-HT1A-serotonergic receptor (Homo sapiens, UniProt P08908) (assay: Radioligand binding to recombinant 5-HT1A receptors ([3H]8-OH-DPAT, HeLa cell membranes)). Settings: 1 nM [3H]8-OH-DPAT; Ki from IC50 by Cheng & Prusoff; read-out: Ki, binding affinity for 5-HT1A receptors.
T1 construct: expressed in transfected cells; host or cells: HeLa (human), stably transfected; membrane preparation
T1 sequence (P08908 1-422): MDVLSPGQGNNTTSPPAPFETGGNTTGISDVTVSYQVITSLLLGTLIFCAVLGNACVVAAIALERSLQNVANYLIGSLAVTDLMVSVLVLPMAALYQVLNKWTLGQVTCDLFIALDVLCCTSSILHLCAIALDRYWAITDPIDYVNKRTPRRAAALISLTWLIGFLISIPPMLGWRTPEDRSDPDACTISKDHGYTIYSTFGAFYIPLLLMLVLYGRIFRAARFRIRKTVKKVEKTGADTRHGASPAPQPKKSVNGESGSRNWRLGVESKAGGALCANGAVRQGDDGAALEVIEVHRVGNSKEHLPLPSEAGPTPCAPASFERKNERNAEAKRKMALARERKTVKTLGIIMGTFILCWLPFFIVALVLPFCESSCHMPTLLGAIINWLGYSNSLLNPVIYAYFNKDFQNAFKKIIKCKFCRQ
Protocol: Genomic clone coding for the human 5-HT1A-serotonergic receptor was stably transfected in a human cell line (HeLa). HeLa cells were grown as monolayers in Dulbecco's modified Eagle medium (DMEM), containing 10% foetal bovine serum, gentamycin (0.1 mg/ml) and 5% carbon dioxide, at 37° C. The cells were detached from the growth flask at 95% confluence by a cell scraper and were lysed in cold 5 mM Tris and 5 mM EDTA buffer (pH 7.4). The homogenates were centrifuged at 40000×g×20 minutes and the pellets were resuspended in a small volume of cold 5 mM Tris and 5 mM EDTA buffer (pH 7.4) and immediately frozen and stored at −70° C. until use. On the day of experiment, the cell membranes were resuspended in incubation buffer: 50 mM Tris HCl (pH 7.4), 2.5 mM MgCl2, […] (Fargin et al., Nature 335, 358-360, 1988). The membranes were incubated in a final volume of 1 ml for 30 minutes at 30° C. with 1 nM [^3H]8-OH-DPAT, in the absence or presence of the test compounds. Non-specific binding was determined in the presence of 10 μM 5-HT. Incubation was stopped by addition of cold Tris-HC1 buffer and rapid filtration through a 0.2%-polyethyleneimine-pretreated Whatman-GF/B or Schleicher-&-Schuell-GF52 filter.
The affinities of the tested compounds were evaluated as inhibition of specific binding of the radioligand to 5-HT1A receptors (IC50) by using the non-linear curve-fitting program Allfit (De Lean et al., Am. J. Physiol. 235, E97-E102 (1978). The IC50 value was converted to an affinity constant (Ki) by the equation of Cheng & Prusoff (Cheng Y. C., Prusoff W. H., Biochem. Pharmacol. 22, 3099-3108 (1973)).

Compared with COc1cc(F)ccc1N1CCN(CCC(C(=O)C2CCCCC2)c2ccccc2C#N)CC1 (stereo not shown) [Example 15, 1-[3-(2-Cyanophenyl)-4-cyclohexyl-4-oxobutyl]-4-(4-fluoro-2-methoxyphenyl)piperazine], N#Cc1ccccc1C(CCN1CCN(c2cccc3c2OCCO3)CC1)C(=O)C1CCCCC1 (stereo not shown) [Example 13, 1-[3-(2-Cyanophenyl)-4-cyclohexyl-4-oxobutyl]-4-[5-(2,3-dihydro-1,4-benzodioxinyl)]piperazine] is 3.2-fold lower in Ki: 1.69 nM for the first, 0.53 nM for the second. The second binds more tightly here.

COC(C1CCCCC1)C(CCN1CCN(c2cccc3c2OCCO3)CC1)c1ccccc1 (stereo not shown) [Example 17, 1-(4-cyclohexyl-4-methoxy-3-phenylbutyl)-4-[5-(2,3-dihydro-1,4-benzodioxinyl)]piperazine] and CCOC(C1CCCCC1)C(CCN1CCN(c2cccc3c2OCCO3)CC1)c1ccccc1 (stereo not shown) [Example 19, 1-(4-Cyclohexyl-4-ethoxy-3-phenylbutyl)-4-[5-(2,3-dihydro-1,4-benzodioxinyl)]piperazine] are within 1.5-fold of each other in Ki: 0.64 nM for the first, 0.69 nM for the second.

Going from CC(O)C(CCN1CCN(c2cccc3c2OCCO3)CC1)c1ccccc1OC(F)(F)F (stereo not shown) [Example 5, 1-[5-(2,3-Dihydro-1,4-benzodioxinyl)]-4-[4-hydroxy-3-(2-trifluoromethoxyphenyl)pentyl]piperazine] to CCC(O)C(CCN1CCN(c2cccc3c2OCCO3)CC1)c1ccccc1OC(F)(F)F (stereo not shown) [Example 6, 1-[5-(2,3-Dihydro-1,4-benzodioxinyl)]-4-[4-hydroxy-3-(2-trifluoromethoxyphenyl)hexyl]piperazine], the Ki falls from 8.31 nM to 3.66 nM (2.3-fold).

Compared with CN(C)C(=O)c1ccccc1C(CCN1CCN(c2cccc3c2OCCO3)CC1)C(=O)C1CCCCC1 (stereo not shown) [Example 39, 1-[4-Cyclohexyl-3-(2-dimethylaminocarbonylphenyl)-4-oxobutyl]-4-[5-(2,3-dihydro-1,4-benzodioxinyl)]piperazine], CN(C)C(=O)c1ccccc1C(CCN1CCN(c2cccc3c2OCCO3)CC1)C(O)C1CCCCC1 (stereo not shown) [Example 40, 1-[4-Cyclohexyl-3-(2-dimethylaminocarbonylphenyl)-4-hydroxybutyl]-4-[5-(2,3-dihydro-1,4-benzodioxinyl)]piperazine] is 1.6-fold lower in Ki: 2.92 nM for the first, 1.84 nM for the second.

First: N#Cc1ccccc1[C@@H](CCN1CCN(c2cccc3c2OCCO3)CC1)[C@@H](O)C1CCCCC1 (racemic) [Example 14, (RS,SR)-1-[3-(2-Cyanophenyl)-4-cyclohexyl-4-hydroxybutyl]-4-[5-(2,3-dihydro-1,4-benzodioxinyl)]piperazine]
Second: N#Cc1ccccc1C(CCN1CCN(c2cccc3c2OCCO3)CC1)C(O)C1CCCCC1 (racemic) [Example 14b, (SR)-1-[3-(2-Cyanophenyl)-4-cyclohexyl-4-hydroxybutyl]-4-[5-(2,3-dihydro-1,4-benzodioxinyl)]piperazine]
The Ki of the first is 2.4-fold lower: 0.401 nM for the first, 0.965 nM for the second. The first binds more tightly here.

First: CCCOC(C1CCCCC1)C(CCN1CCN(c2cccc3c2OCCO3)CC1)c1ccccc1 (stereo not shown) [Example 25, 1-(4-Cyclohexyl-3-phenyl-4-propoxybutyl)-4-[5-(2,3-dihydro-1,4-benzodioxinyl)]piperazine]
Second: C#CCOC(C1CCCCC1)C(CCN1CCN(c2cccc3c2OCCO3)CC1)c1ccccc1 (stereo not shown) [Example 23, 1-(4-Cyclohexyl-3-phenyl-4-propargyloxybutyl)-4-[5-(2,3-dihydro-1,4-benzodioxinyl)]piperazine]
The Ki of the first is 1.9-fold higher: 1.18 nM for the first, 0.63 nM for the second.

CC=CC(O)C(CCN1CCN(c2cccc3c2OCCO3)CC1)c1ccccc1 (stereo not shown) [Example 32, 1-[5-(2,3-Dihydro-1,4-benzodioxinyl)]-4-(4-hydroxy-3-phenylhept-5-enyl)piperazine] and C=CC(O)C(CCN1CCN(c2cccc3c2OCCO3)CC1)c1ccccc1 (stereo not shown) [Example 28, 1-[5-(2,3-Dihydro-1,4-benzodioxinyl)]-4-(4-hydroxy-3-phenylhex-5-enyl]piperazine] are within 1.5-fold of each other in Ki: 3.57 nM for the first, 2.92 nM for the second.

First: CCCC(OC)C(CCN1CCN(c2cccc3c2OCCO3)CC1)c1ccccc1 (stereo not shown) [Example 10, 1-[5-(2,3-Dihydro-1,4-benzodioxinyl)]-4-[(4-methoxy-3-phenyl)heptyl]piperazine]
Second: CCCOC(CCC)C(CCN1CCN(c2cccc3c2OCCO3)CC1)c1ccccc1 (stereo not shown) [Example 12, 1-[5-(2,3-Dihydro-1,4-benzodioxinyl)]-4-[(4-propoxy-3-phenyl)heptyl]piperazine]
The Ki of the first is 1.8-fold lower: 1.68 nM for the first, 3.01 nM for the second.

COC(C)C(CCN1CCN(c2cccc3c2OCCO3)CC1)c1ccccc1 (stereo not shown) [Example 11, 1-[5-(2,3-Dihydro-1,4-benzodioxinyl)]-4-[(4-methoxy-3-phenyl)pentyl]piperazine] and CC(O)C(CCN1CCN(c2cccc3c2OCCO3)CC1)c1ccccc1 (stereo not shown) [Example 30] are within 1.5-fold of each other in Ki: 3.65 nM for the first, 5.43 nM for the second.

Compared with CCOC(C1CCCCC1)C(CCN1CCN(c2ccc(F)cc2OC)CC1)c1ccccc1 (stereo not shown) [Example 20, 1-(4-Cyclohexyl-4-ethoxy-3-phenylbutyl)-4-(4-fluoro-2-methoxyphenyl)piperazine], COc1cc(F)ccc1N1CCN(CCC(c2ccccc2C(=O)N(C)C)C(O)C2CCCCC2)CC1 (stereo not shown) [Example 42, 1-[4-Cyclohexyl-3-(2-dimethylaminocarbonylphenyl)-4-hydroxybutyl]-4-(4-fluoro-2-methoxyphenyl)piperazine] is 1.5-fold higher in Ki: 3.19 nM for the first, 4.87 nM for the second. The first binds more tightly here.

CC(C)=CC(O)C(CCN1CCN(c2cccc3c2OCCO3)CC1)c1ccccc1 (stereo not shown) [Example 35, 1-[5-(2,3-Dihydro-1,4-benzodioxinyl)]-4-(4-hydroxy-6-methyl-3-phenylhept-5-enyl)piperazine] and CC(C)C(O)C(CCN1CCN(c2cccc3c2OCCO3)CC1)c1ccccc1 (stereo not shown) [Example 29] are within 1.5-fold of each other in Ki: 1.47 nM for the first, 1.08 nM for the second.

Going from C#CC(O)C(CCN1CCN(c2cccc3c2OCCO3)CC1)c1ccccc1 (stereo not shown) [Example 33, 1-[5-(2,3-Dihydro-1,4-benzodioxinyl)]-4-(4-hydroxy-3-phenylhex-5-ynyl)piperazine] to CCC(O)C(CCN1CCN(c2cccc3c2OCCO3)CC1)c1ccccc1 (stereo not shown) [Example 26, 1-[5-(2,3-Dihydro-1,4-benzodioxinyl)]-4-(4-hydroxy-3-phenyl)hexylpiperazine], the Ki falls from 5.03 nM to 2.62 nM (1.9-fold). The second binds more tightly here.

Going from OCC(CCN1CCN(c2cccc3c2OCCO3)CC1)c1ccccc1 (stereo not shown) [Example 37, 1-[5-(2,3-dihydro-1,4-benzodioxinyl)]-4-(4-hydroxy-3-phenylbutyl]piperazine] to CCCC(O)C(CCN1CCN(c2cccc3c2OCCO3)CC1)c1ccccc1 (stereo not shown) [Example 27], the Ki falls from 5.03 nM to 1.09 nM (4.6-fold). The second binds more tightly here.

N#Cc1ccccc1C(CCN1CCN(c2cccc3c2OCCO3)CC1)C(O)C1CCCCC1 (racemic) [Example 14a, (RS)-1-[3-(2-Cyanophenyl)-4-cyclohexyl-4-hydroxybutyl]-4-[5-(2,3-dihydro-1,4-benzodioxinyl)]piperazine] and C=CCOC(C1CCCCC1)C(CCN1CCN(c2cccc3c2OCCO3)CC1)c1ccccc1 (stereo not shown) [Example 21, 1-(4-Allyloxy-4-cyclohexyl-3-phenylbutyl)-4-[5-(2,3-dihydro-1,4-benzodioxinyl)]piperazine] are within 1.5-fold of each other in Ki: 0.878 nM for the first, 0.77 nM for the second.

Going from O=C(C1CCCCC1)C(CCN1CCN(c2cccc3[nH]ccc23)CC1)c1ccccc1OC(F)(F)F (stereo not shown) [Example 44, 1-[4-Cyclohexyl-3-(2-trifluoromethoxyphenyl)-4-oxobutyl]-4-(4-indolyl)piperazine] to C=CC(O)C(CCN1CCN(c2cccc3c2OCCO3)CC1)c1ccccc1OC(F)(F)F (stereo not shown) [Example 7, 1-[5-(2,3-Dihydro-1,4-benzodioxinyl)]-4-[4-hydroxy-3-(2-trifluoromethoxyphenyl)hex-5-enyl]piperazine], the Ki rises from 1.14 nM to 7.27 nM (6.4-fold).

Compared with COC(=O)O[C@@H](C1CCCCC1)[C@H](CCN1CCN(c2ccccc2OC)CC1)c1ccccc1F (racemic) [Example 46, (RS,SR) 1-[4-Cyclohexyl-3-(2-fluorophenyl)-4-methoxycarbonyloxybutyl]-4-(2-methoxyphenyl)piperazine], C=CC(OC)C(CCN1CCN(c2cccc3c2OCCO3)CC1)c1ccccc1OC(F)(F)F (stereo not shown) [Example 9, 1-[5-(2,3-Dihydro-1,4-benzodioxinyl)]-4-[4-methoxy-3-(2-trifluoromethoxyphenyl)-5-hexenyl]piperazine] is 2.6-fold higher in Ki: 0.72 nM for the first, 1.9 nM for the second. The first binds more tightly here.

Going from C=CCC(O)C(CCN1CCN(c2cccc3c2OCCO3)CC1)c1ccccc1 (stereo not shown) [Example 34, 1-[5-(2,3-Dihydro-1,4-benzodioxinyl)]-4-(4-hydroxy-3-phenylhept-6-enyl)piperazine] to CC(C)CC(O)C(CCN1CCN(c2cccc3c2OCCO3)CC1)c1ccccc1 (stereo not shown) [Example 36], the Ki falls from 1.67 nM to 0.56 nM (3-fold). The second binds more tightly here.
